Measured values taken from US7371773B2, “Breast cancer resistance protein (BCRP) inhibitor” (Kabushiki Kaisha Yakult Honsha, priority 2003, dated 2008).
In brackets after ≈: the same amount, converted by molar mass. Like-named read-outs stand apart in the source and are kept apart here.

How the values were obtained:
Assay type in all cases: cell-based, human
[1] = system: A549/SN-38-3 cell line; test: Anticancer drug sensitivity test, A549/SN-38-3; conditions: for IC50: A549/SN-38-3, culturing 48 hours; for Relative resistance value: IC50 for A549/SN-38-3 divided by IC50 for A549
Experimental: (§1) Human non-small cell lung cancer A549 cell line was subcultured at 5% CO2 and 37° C. by use of a Ham's F-12 medium containing 10% FBS, 100 U/mL of penicillin, and 100 μg/mL of streptomycin (10% FBS/Ham's F-12). SN-38-resistant A549 cell lines were selected by subculturing the A549 cell line in a medium for two months while the concentration of SN-38 contained in the medium was increased in a stepwise manner (4 to 10 ng/mL). Subsequently, the resultant SN-38-resistant A549 cell lines were subjected to cloning by means of limiting dilution, to thereby establish six cloned SN-38-resistant A549 cell lines (A549/SN-38-1 to 6).
(§2) The A549 cell line or each of the A549/SN-38-1 to 6 was suspended in 10% FBS/Ham's F-12, and the resultant suspension was inoculated into a 96-well microplate, followed by culturing at 5% CO2 and 37° C. overnight. Thereafter, a solution of an anticancer drug in 10% FBS/Ham's F-12 (50 μL) was added to each of the wells, followed by culturing at 5% CO2 and 37° C. for 48 hours. After completion of culturing, the number of viable cells was counted by use of a viable cell counting reagent [TetraColor ONE (trade name), product of Seikagaku Corporation] according to the attached instruction manual. […] “Relative resistance value” is obtained by dividing the IC50 for an A549/SN-38 cell line by the IC50 for the A549 cell line. The greater the relative resistance value, the higher the level of acquired resistance.

[2] = system: A549/SN-38-1 cell line; test: Anticancer drug sensitivity test, A549/SN-38-1; conditions: for IC50: A549/SN-38-1, culturing 48 hours; for Relative resistance value: IC50 for A549/SN-38-1 divided by IC50 for A549
Experimental: as §1, §2

[3] = system: A549/SN-38-6 cell line; test: Anticancer drug sensitivity test, A549/SN-38-6; conditions: for IC50: A549/SN-38-6, culturing 48 hours; for Relative resistance value: IC50 for A549/SN-38-6 divided by IC50 for A549
Experimental: as §1, §2

[4] = system: A549/SN-38-4 cell line; test: Anticancer drug sensitivity test, A549/SN-38-4; conditions: for IC50: A549/SN-38-4, culturing 48 hours; for Relative resistance value: IC50 for A549/SN-38-4 divided by IC50 for A549
Experimental: as §1, §2

[5] = system: A549/SN-38-5 cell line; test: Anticancer drug sensitivity test, A549/SN-38-5; conditions: for IC50: A549/SN-38-5, culturing 48 hours; for Relative resistance value: IC50 for A549/SN-38-5 divided by IC50 for A549
Experimental: as §1, §2

[6] = system: A549/SN-38-2 cell line; test: Anticancer drug sensitivity test, A549/SN-38-2; conditions: for IC50: A549/SN-38-2, culturing 48 hours; for Relative resistance value: IC50 for A549/SN-38-2 divided by IC50 for A549
Experimental: as §1, §2

[7] = system: A549 cell line; test: Anticancer drug sensitivity test, A549 cell line; conditions: culturing 48 hours
Experimental: as §2

[8] = system: A549/SN-38 cell lines; test: Anticancer drug sensitivity test, A549/SN-38 cell lines as a group; conditions: BCRP substrates
[9] = system: A549/SN-38-4 cell line; test: Amount of anticancer drug accumulated in A549/SN-38 cell line; conditions: SN-38 300 ng/mL, 37° C., 60 minutes

| Structure (SMILES) | IC50 ([1]; Homo sapiens, read-out: IC50) [µg/mL] | IC50 ([2]; Homo sapiens, read-out: IC50) [µg/mL] | IC50 ([3]; Homo sapiens, read-out: IC50) [µg/mL] | IC50 ([4]; Homo sapiens, read-out: IC50) [µg/mL] | IC50 ([5]; Homo sapiens, read-out: IC50) [µg/mL] | IC50 ([6]; Homo sapiens, read-out: IC50) [µg/mL] | IC50 ([7]; Homo sapiens, read-out: IC50) [µg/mL] | IC50 [1] [µg/mL] | Relative resistance value [1] | IC50 [2] [µg/mL] | Relative resistance value [2] | IC50 [3] [µg/mL] | Relative resistance value [3] | IC50 [4] [µg/mL] | Relative resistance value [4] | IC50 [5] [µg/mL] | Relative resistance value [5] | IC50 [6] [µg/mL] | Relative resistance value [6] | IC50 [7] [µg/mL] | also measured |
| --- | --- | --- | --- | --- | --- | --- | --- | --- | --- | --- | --- | --- | --- | --- | --- | --- | --- | --- | --- | --- | --- |
| CO[C@@]12[C@H](COC(N)=O)C3=C(C(=O)C(C)=C(N)C3=O)N1C[C@@H]1N[C@@H]12 [Mitomycin C] | – | – | – | – | – | – | – | 0.0029 (≈ 0.00867 µM) | (0.3) | 0.13 (≈ 0.389 µM) | (1.2) | 0.047 (≈ 0.141 µM) | (0.4) | 0.15 (≈ 0.449 µM) | (1.4) | 0.11 (≈ 0.329 µM) | (1.0) | 0.11 (≈ 0.329 µM) | (1.1) | 0.11 (≈ 0.329 µM) | – |
| O=c1[nH]cc(F)c(=O)[nH]1 [5-Fluorouracil] | 0.69 (≈ 5.3 µM) | 4.3 (≈ 33.1 µM) | 1 (≈ 7.69 µM) | 0.91 (≈ 7 µM) | 1.7 (≈ 13.1 µM) | 1.3 (≈ 9.99 µM) | 2.1 (≈ 16.1 µM) | – | (0.3) | – | (2.0) | – | (0.5) | – | (0.4) | – | (0.8) | – | (0.6) | – | – |
| O=C1c2c(O)ccc(O)c2C(=O)c2c(NCCNCCO)ccc(NCCNCCO)c21 [mitoxantrone] | – | – | – | – | – | – | – | – | – | – | – | – | – | – | – | – | – | – | – | – | Resistance of A549/SN-38 cell lines to the anticancer drug [8]: particularly strong resistance |
| CCc1c2c(nc3ccc(O)cc13)-c1cc3c(c(=O)n1C2)COC(=O)[C@]3(O)CC [SN-38, 7-ethyl-10-hydroxycamptothecin] | – | – | – | – | – | – | – | 0.13 (≈ 0.331 µM) | (9.7) | 0.12 (≈ 0.306 µM) | (9.2) | 0.10 (≈ 0.255 µM) | (7.4) | 0.10 (≈ 0.255 µM) | (7.7) | 0.10 (≈ 0.255 µM) | (7.7) | 0.10 (≈ 0.255 µM) | (7.5) | 0.013 (≈ 0.0331 µM) | Amount of SN-38 accumulated in A549/SN-38-4 relative to A549 cell line [9]: about ⅕; Resistance of A549/SN-38 cell lines to the anticancer drug [8]: particularly strong resistance |
| N.N.[Cl][Pt][Cl] [Cisplatin] | – | – | – | – | – | – | – | 15.1 | (0.8) | 15.1 | (0.8) | 16.8 | (0.9) | 17.0 | (0.9) | 15.9 | (0.9) | 16.5 | (0.9) | 18.6 | – |
| CC(=O)O[C@H]1C(=O)[C@@]2(C)[C@H]([C@H](OC(=O)c3ccccc3)[C@]3(O)C[C@H](OC(=O)[C@H](O)[C@@H](NC(=O)c4ccccc4)c4ccccc4)C(C)=C1C3(C)C)[C@]1(OC(C)=O)CO[C@@H]1C[C@@H]2O [Paclitaxel] | 0.013 (≈ 0.0152 µM) | 0.0098 (≈ 0.0115 µM) | 0.0071 (≈ 0.00831 µM) | 0.014 (≈ 0.0164 µM) | 0.0061 (≈ 0.00714 µM) | 0.012 (≈ 0.0141 µM) | 0.0049 (≈ 0.00574 µM) | – | (2.7) | – | (2.0) | – | (1.4) | – | (2.8) | – | (1.2) | – | (2.4) | – | – |

Continued, in another order:

| IC50 ([1]; Homo sapiens, read-out: IC50) [µg/mL] | IC50 ([2]; Homo sapiens, read-out: IC50) [µg/mL] | IC50 ([3]; Homo sapiens, read-out: IC50) [µg/mL] | IC50 ([4]; Homo sapiens, read-out: IC50) [µg/mL] | IC50 ([5]; Homo sapiens, read-out: IC50) [µg/mL] | IC50 ([6]; Homo sapiens, read-out: IC50) [µg/mL] | IC50 ([7]; Homo sapiens, read-out: IC50) [µg/mL] | Structure (SMILES) | IC50 [1] [µg/mL] | Relative resistance value [1] | IC50 [2] [µg/mL] | Relative resistance value [2] | IC50 [3] [µg/mL] | Relative resistance value [3] | IC50 [4] [µg/mL] | Relative resistance value [4] | IC50 [5] [µg/mL] | Relative resistance value [5] | IC50 [6] [µg/mL] | Relative resistance value [6] | IC50 [7] [µg/mL] | also measured |
| --- | --- | --- | --- | --- | --- | --- | --- | --- | --- | --- | --- | --- | --- | --- | --- | --- | --- | --- | --- | --- | --- |
| 1.6 (≈ 2.72 µM) | 0.27 (≈ 0.459 µM) | 1 (≈ 1.7 µM) | 3.5 (≈ 5.95 µM) | 2.3 (≈ 3.91 µM) | 0.8 (≈ 1.36 µM) | 0.9 (≈ 1.53 µM) | COc1cc([C@@H]2c3cc4c(cc3[C@@H](O[C@@H]3O[C@@H]5CO[C@@H](C)O[C@H]5[C@H](O)[C@H]3O)[C@H]3COC(=O)[C@H]23)OCO4)cc(OC)c1O [Etoposide] | – | (1.9) | – | (0.3) | – | (1.1) | – | (4.0) | – | (2.7) | – | (1.0) | – | – |
| 0.12 (≈ 0.221 µM) | 0.19 (≈ 0.35 µM) | 0.049 (≈ 0.0902 µM) | 0.22 (≈ 0.405 µM) | 0.057 (≈ 0.105 µM) | 0.14 (≈ 0.258 µM) | 0.1 (≈ 0.184 µM) | COc1cccc2c1C(=O)c1c(O)c3c(c(O)c1C2=O)C[C@@](O)(C(=O)CO)C[C@@H]3O[C@H]1C[C@H](N)[C@H](O)[C@H](C)O1 [Doxorubicin] | – | (1.3) | – | (1.9) | – | (0.5) | – | (2.3) | – | (0.6) | – | (1.4) | – | – |
| 0.004 (≈ 0.0152 µM) | 0.0039 (≈ 0.0148 µM) | 0.004 (≈ 0.0152 µM) | 0.0032 (≈ 0.0122 µM) | 0.004 (≈ 0.0152 µM) | 0.0053 (≈ 0.0201 µM) | 0.009 (≈ 0.0342 µM) | Nc1ccn([C@@H]2O[C@H](CO)[C@@H](O)C2(F)F)c(=O)n1 [Gemcitabine] | – | (0.4) | – | (0.4) | – | (0.4) | – | (0.4) | – | (0.4) | – | (0.6) | – | – |
